From patent US20090082388A1 (ACADIA PHARMACEUTICALS INC., priority 2007, published 2009)

Key:
[1] = system: 31 of the 36 human monoaminergic receptors; test: Functional activity at human monoaminergic receptors; settings: 5-HT1A, 1B, 1D, 1E, 1F, 2B, 3, 4, 6A, 7A; adrenergic α1A, α1B, α1D, α2A, α2B, β2; dopamine D1-D4; histamine H1-H3
[2] = molecular target: dopamine receptors including the D2 and D4 receptors; test: Affinity to dopamine receptors; type: binding
[3] = Clearance from in vitro human microsomes; type: in vitro ADME; settings: read-out: clearance rate from in vitro human microsomes
[4] = Half-life upon oral administration to humans; settings: human, in vivo
[5] = system: mice receiving ICV infusion of amyloid β protein fragment (25-35) or saline (sham); test: Amphetamine-induced hyperactivity study with amyloid β protein; type: in vivo; settings: pimavanserin 0.3 mg/kg, amphetamine 3 mg/kg, FIG. 8
Procedure: This study was conducted in acrylic chambers (42 cm×42 cm×30 cm) equipped with 16 infrared photobeams along each horizontal axis (front-to-back and side-to-side, from Accuscan Instruments, Inc. (Columbus, Ohio)). Subjects were mice receiving ICV infusion of amyloid β protein fragment (25-35) or ICV infusion of saline (sham) for 7-10 days.
An amphetamine-induced hyperactivity study was conducted on the subjects. Subjects were injected with amphetamine (3 mg/kg) or vehicle 15 minutes prior to entering motor activity chambers. Activity was measured as a total distance traveled (DT) in centimeters (cm) and was determined in 20 minute increments across a 60 minute session.
Activity was measured as a total distance traveled (DT) in centimeters (cm) and was determined in 20 minute increments across a 60 minute session.

[6] = system: mice with a deletion of the M1 muscarinic receptor (M1KO) or wild-type (WT) controls; test: Hyperactivity study with M1 knock-out mice; type: in vivo
Procedure: A linear regression analysis was then conducted to determine the theoretical dose that would produce a 50% reduction of activity (ED50) and 95% confidence interval. Mice had no prior exposure to the chambers and each dose combination was tested in separate groups of mice.

[7] = system: amphetamine-induced hyperactivity in mice; test: Amphetamine-induced hyperactivity with tacrine or xanomeline; type: in vivo; settings: amphetamine 3 mg/kg, pimavanserin 0.03 mg/kg where combined
Procedure: This study was conducted in acrylic chambers (42 cm×42 cm×30 cm) equipped with 16 infrared photobeams along each horizontal axis (front-to-back and side-to-side, from Accuscan Instruments, Inc., Columbus, Ohio). […] Vehicle or a drug (either tacrine or xanomeline) was injected 30 minutes prior to entering activity chambers. Amphetamine (3 mg/kg) was injected into mice 15 minutes prior to entering motor activity chambers. Mice had no prior exposure to the chambers and each dose combination was tested in separate groups of mice.
Activity was measured as total distance traveled (DT) in centimeters and was determined across a 15 minute session. Dose response curves were constructed for the drug in the presence of either vehicle or a fixed dose of pimavanserin. In order to generate dose-response curves, raw DT data were converted to percent inhibition, % MPI=((DT drug or drug combination−DT amphetamine control)/(DT vehicle control−DT amphetamine control))*100. A linear regression analysis was then conducted to determine the theoretical dose that would produce a 50% reduction of activity (ED50) and 95% confidence interval.

C57 BK/6 mice = settings: test phase, FIGS. 5 and 6
Procedure: Subjects were male, C57 BK/6 mice purchased from Harlan Laboratories, weighing 15-20 g upon arrival. Animals were housed 8 per cage with food and water available ad libitum. Animals were housed on a 12 hr light cycle (lights on 6 am) for 4-7 days prior to behavioral testing.
Novel object recognition (NOR) was conducted in a novel environment consisting of a white plastic tub measuring 45.7×33.7×19 cm. Prior to each trial the bottom of the tub was covered with a piece of plastic lined bench top paper. There were two sets of identical objects chosen so that when given an opportunity to explore, mice would evenly divide exploration time between the objects. “A” objects were yellow, ceramic, 12-sided ramekins measuring 4 cm high×7 cm diameter. “B” objects were 8×8×4 cm stainless steel, 4-sided ramekins.
At the beginning of each test day, animals were placed in groups of 6 into clean cages. […]
During the sample phase, two identical objects (“A” or “B”, objects described above) were placed into the NOR chamber. […] The time spent exploring at each position was recorded. Directly sniffing or touching the object was recorded as exploration. […]
The test phase was conducted one to two hours after the sample phase. […] The test sessions were recorded on video and scored by an observer blind to each subject's treatment condition. Any time spent directly sniffing or touching an object was counted as exploration. […]

[8] = cited from earlier work

CC(C)COc1ccc(CNC(=O)N(Cc2ccc(F)cc2)C2CCN(C)CC2)cc1 [Pimavanserin, N-(1-methylpiperidin-4-yl)-N-(4-fluorophenylmethyl)-N′-(4-(2-methylpropyloxy)phenylmethyl)carbamide]
functional activity (pEC50 or pKi) [1]: < 6 | pKi to dopamine receptors including D2 and D4 [2]: < 6 | microsomal CLint [3]: < 10 µL/min/mg | half-life [4]: ~55 h | distance traveled following amphetamine, amyloid β mice ([5]; amyloid β mice): reversed the augmented locomotor response to amphetamine | distance traveled following amphetamine, control mice ([5]; sham (control) mice): did not reduce the hyperactivity induced by amphetamine | amphetamine-induced activity, M1KO subjects ([6]; M1KO mice, amphetamine 3 mg/kg ip, FIG. 9): reversed the augmented amphetamine response | amphetamine-induced activity, WT subjects ([6]; WT mice, amphetamine 3 mg/kg ip, FIG. 9): did not alter amphetamine-induced activity | percent inhibition of amphetamine-induced hyperactivity ([6]; as a function of pimavanserin dosage, FIG. 10): increased the inhibition of amphetamine-induced hyperactivity | locomotor activity, pimavanserin alone ([6]; no amphetamine, compared with vehicle controls, pimavanserin 0.03 or 0.3 mg/kg, FIG. 9): no significant effect on locomotor activity

Nc1c2c(nc3ccccc13)CCCC2 [tacrine]
total distance traveled ([7]; 15 minute session, FIGS. 1 and 3): total distance traveled decreased | percent inhibition of amphetamine-induced hyperactivity ([7]; FIGS. 2 and 4): greater inhibition of amphetamine-induced hyperactivity | percent of time spent exploring a novel object (C57 BK/6 mice): also increased | patients with elevated liver transaminases [8]: about 30%
